Patent US20180282279A1, “Pantothenamide Analogues” (Radboud Universitair Medisch Centrum, priority 2014, published 2018)
Converted amounts (≈) assume the structure as drawn. Like-named read-outs stand apart in the source and are kept apart here.

How the values were obtained:
[1] = system: Plasmodium falciparum NF54 parasites; assay: P. falciparum asexual blood stage replication assay (SYBR Green); format: cell-based; conditions: NF54, 10% human serum, 72 incubation
Description: Compounds were tested on their ability to inhibit replication of the human malaria parasite Plasmodium falciparum. To this end, Plasmodium falciparum NF54 parasites were cultured in RPMI1640 medium supplemented with 367 μM hypoxanthine, 25 mM HEPES, 25 mM sodiumbicarbonate and 10% human type A serum in an automated large-scale culture system as described before (Transactions of the Royal Society of Tropical Medicine and Hygiene, 1982. 76: p. 812-818). Compounds were diluted in DMSO and subsequently in culture medium to reach a DMSO concentration of 0.2%. 50 μl of diluted compound was transferred to a black 96 well plate. A culture of P. falciparum strain NF54 malaria parasites was diluted to a parasitaemia of 0.5% and a hematocrit of 3%. 50 μl of this diluted culture was added to each well in the 96 well plate._The outermost wells of the plate were filled with sterile water to prevent evaporation. The established antimalarial dihydroartemisinin (DHA) in DMSO acted as a positive control (MIN signal), and 0.1% DMSO acted as a negative control (MAX signal). The plates were incubated for 72 at 37° C., 3% 02, 5% CO2, 93% N2. Changes in parasite replication relative to the controls were monitored using the DNA-marker SYBR Green as described previously (Antimicrob Agents Chemother 48:1803-6). Data were analyzed by logistic regression using the formula: Y=Bottom+(Top-Bottom)/(1+10̂((Log IC50−X)*HillSlope)) and a least squares method to find the best fit.
Using similar methods, IC50 values were determined for a variety of inverted pantothenamides, as listed in table 1 (see section: ‘Detailed description of the invention’)

[2] = system: S. aureus (SA), S. epidermidis (SE), S. pyogenes (SP), S. pneumoniae (SPn); assay: MIC for most sensitive bacterial species (panel); format: cell-based; conditions: Table 1, no species named, read-out: MIC (μg/ml) for most sensitive bacterial species
Description: (§1) Strains of Escherichia coli, Staphylococcus aureus and Staphylococcus epidermidis, were grown overnight in 1% Bacto tryptone medium (BD, Sparks, Md.). Streptococcus pyogenes was grown overnight in Bacto Todd Hewitt Broth medium (BD, Sparks, Md.). Cultures were then diluted 1:1,000 in fresh assay medium supplemented with or without 20% fetal bovine serum (FBS; HyClone, Celbio, Logan, Utah) and added to 96-well sterile enzyme-linked immunosorbent assay (ELISA) plates (100 μl per well). The compounds to be tested were diluted in the medium without serum and added to the bacteria (100 μl per well). Plates were incubated at 37° C., and bacterial growth was monitored over time by reading the optical density at 490 nm using a microplate reader (model 450; Bio-Rad Laboratories Inc., Hercules, Calif.). Streptococcus pneumoniae strains were grown to mid-log phase (OD620 of 0.3) and stored in 15% glycerol at […] till further use. Minimal inhibitory concentration (MIC) of antibiotics was determined according to standard procedures. Bacteria were diluted 10-fold in Mueller-Hinton medium (BD, Sparks, Md.) and added to 96-well sterile ELISA plates (150 μl per well). The compounds to be tested were diluted in the medium without serum and added to the bacteria (150 μl per well). Plates were incubated overnight at 37° C. in 5% CO2. The MIC was defined as the lowest concentration of compound at which no growth was visible with the naked eye.

Streptococcus pyogenes = assay: Bacterial growth assay and MIC determination, S. pyogenes; format: cell-based; conditions: Streptococcus pyogenes; Table 1; most sensitive species S. pyogenes (SP); read-out: MIC (μg/ml) for most sensitive bacterial species
Description: as §1

[3] = system: Staphylococcus epidermidis; assay: Bacterial growth assay and MIC determination, S. epidermidis; format: cell-based; conditions: Staphylococcus epidermidis; Table 1; most sensitive species S. epidermidis (SE); read-out: MIC (μg/ml) for most sensitive bacterial species
Description: as §1

[4] = system: P. falciparum gametocytes; assay: microbe, parasite or virus in culture; format: cell-based, Plasmodium falciparum; conditions: Plasmodium falciparum; 72 hour incubation; read-out: Gametocyte viability (pLDH) IC50
Description: Compounds were tested for their ability to affect the viability of gametocytes, the sexually committed blood stages of P. falciparum that underlie transmission to the mosquito vector. To this end, two different assays were performed. The first assay monitored pLDH activity as a measure of viability of gametocytes (J Antimicrob Chemother. 2013 September; 68(9):2048-58). The second assay monitored the ability of gametocytes to form a female gamete by detection of the gamete-specific marker Pfs25. Plasmodium falciparum NF54 parasites were cultured in RPMI1640 medium supplemented with 367 μM hypoxanthine, 25 mM HEPES, 25 mM sodiumbicarbonate and 10% human type A serum in an automated large-scale culture system as described before (Transactions of the Royal Society of Tropical Medicine and Hygiene, 1982. 76: p. 812-818). Cultures were treated with 50 mM N-acetyl-D-glucosamine from day 4 till day 9 to kill asexual parasites. On day 11 gametocytes were isolated by discontinuous 63% Percoll gradient centrifugation. Compounds were diluted in DMSO and subsequently in culture medium to reach a DMSO concentration of 0.2%. To measure the effect of compounds of pLDH activity, gametocytes were seeded at a density of 3.5×10^4 gametocytes per well in a black 384 well plate in 30 μl of culture medium, and 30 μl of diluted compound was added. Following a 72 hour incubation at 37° C., 98% humidity, 93% N2, 4% CO2 and 3% O2, gametocyte viability was measured by a modified plasmodium lactate dehydrogenase assay by using resazurin as a substrate as previously described (Nature, 2013. 504(7479): p. 248-53). Assays were performed in quadruplicate (two different plates with two different gametocyte batches) and all plates included controls MIN (1 μM DHA), MAX (0.1% DMSO) and a serial dilution of reference compound dihydroartemisinin (DHA).

[5] = system: P. falciparum gametocytes; assay: Gametocyte female gametogenesis capacity assay (Pfs25 AlphaLISA); format: cell-based; conditions: Plasmodium falciparum; 72 hours incubation, Table 3; read-out: Gametocyte gametogenesis capacity (Pfs25) IC50
Description: To monitor compound effects on the ability of a gametocyte to form a female gamete, day 11 (stage IV) gametocytes were seeded at a density of 4×10^5 gametocytes per well in a V-bottom plate in 50 μl culture medium. 50 μl of diluted compound was added to the gametocytes (0.1% DMSO final concentration) and plates were incubated for 72 hours at 37° C., 98% humidity, 93% N2, 4% CO2 and 3% O2. Subsequently, gametogenesis was induced by adding xanthurenic acid to a final concentration of 40 μM and plates were incubated for 16 hours at 20° C. Gametes were detected in a homogeneous proximity immunoassay on basis of Pfs25 expression by use of AlphaLISA technology (Perkin Elmer). All steps were performed at 20° C. Gametes were washed twice with PBS, lysed for 15 min in 10 μl 10 mM Tris pH 8.0/1% laurylsarcosyl/1 mM phenylmethanesulfonyl fluoride and combined with 10 μl 5 nM biotinylated mouse anti-Pfs25 monoclonal antibody 32F6244 in a white 384 well optiplate (Perkin Elmer). After 1 hour incubation 15 μl of 33 μg/ml acceptorbeads coated with mouse anti-Pfs25 monoclonal antibody 32F81 were added. After 1 hour incubation, 15 μl 33 μg/ml Streptavidin-conjugated donorbeads were added. Finally, after 1 hour incubation luminescence signals were monitored at the 615 nm emission wavelength following excitation at 680 nm using a fluorometer (Biotek Synergy 2). All compounds were tested in duplicate (24 hr) or triplicate (1 and 72 hr). Controls included MIN (0.1 μM epoxomicin) and MAX (0.1% DMSO). Data were analyzed by logistic regression using the formula: Y=Bottom+(Top−Bottom)/(1+10̂((Log IC50−X)*HillSlope)) and a least squares method to find the best fit.

Staphylococcus aureus = assay: Bacterial growth assay and MIC determination, S. aureus; format: cell-based; conditions: Staphylococcus aureus, Table 1; most sensitive species S. aureus (SA); read-out: MIC (μg/ml) for most sensitive bacterial species
Description: as §1

Row | SMILES | IC50 [1] [µM] | MIC ([2]; tested for SA, SE, SP and SPn) [µg/mL] | MIC [3] [µg/mL] | other results
1 | CC(C)(CO)[C@@H](O)C(=O)NCCCNC(=O)CCc1ccccc1 [CXP18.6-010] | 7.5 | > 32 |  | 
2 | CC(C)(CO)[C@@H](O)C(=O)NCCNC(=O)CCc1ccc(F)cc1 [CXP18.6-019] | 0.42 |  | 32 (≈ 94 µM) | 
3 | COc1ccc(CCC(=O)NCCNC(=O)[C@H](O)C(C)(C)CO)cc1 [CXP18.6-022] | 1 | > 32 |  | 
4 | CC(C)(CO)[C@@H](O)C(=O)NCCNC(=O)CCc1ccccc1Cl [CXP18.6-027] | 0.58 | > 32 |  | 
5 | CC(C)(CO)[C@@H](O)C(=O)NCCNC(=O)CCc1ccccc1C(F)(F)F [CXP18.6-038] | 6.4 |  | 32 (≈ 82 µM) | 
6 | CC(C)(CO)[C@@H](O)C(=O)NCCNC(=O)CCc1ccc(C(F)(F)F)cc1 [CXP18.6-042] | 0.21 | > 32 |  | 
7 | CC(C)(CO)[C@@H](O)C(=O)NCCNC(=O)/C=C/c1ccccc1 [CXP18.6-048] | 2.2 |  | 16 (≈ 49.9 µM) | 
8 | CC(C)(CO)[C@@H](O)C(=O)NCCNC(=O)CCc1ccccn1 [CXP18.6-055] | 1.6 |  | 32 (≈ 99 µM) | 
9 | CC(C)(CO)[C@@H](O)C(=O)NCCNC(=O)CCc1ccncc1 [CXP18.6-056] | 0.47 |  |  | MIC ([2]; Streptococcus pneumoniae, marked *: not tested for S. pneumoniae): > 32 µg/mL
10 | CC(C)(CO)[C@@H](O)C(=O)NCCNC(=O)CCc1ccco1 [CXP18.6-057] | 0.4 |  | 16 (≈ 51.2 µM) | MIC (Staphylococcus aureus): 16 µg/mL (≈ 51.2 µM)
11 | C[C@H](CNC(=O)[C@H](O)C(C)(C)CO)NC(=O)CCc1ccccc1F [MMV689260] | 0.21 | > 32 |  | 

These reach a lower IC50 [1]. Values come first.

Row | IC50 [1] [µM] | MIC ([2]; tested for SA, SE, SP and SPn) [µg/mL] | MIC [3] [µg/mL] | SMILES | other results
12 | 0.1 |  |  | CC(C)(CO)[C@@H](O)C(=O)NCCNC(=O)CCc1cccc(F)c1 [CXP18.6-018] | MIC (Streptococcus pyogenes): 16 µg/mL (≈ 47 µM)
13 | 0.19 | > 32 |  | CC(C)(CO)[C@@H](O)C(=O)NCCNC(=O)CCc1ccc(Cl)cc1 [CXP18.6-028] | 
14 | 0.15 | > 32 |  | CC(C)(C)c1ccc(CCC(=O)NCCNC(=O)[C@H](O)C(C)(C)CO)cc1 [CXP18.6-043] | 
15 | 0.057 |  |  | CC(C)(CO)[C@@H](O)C(=O)NCCNC(=O)CCc1ccsc1 [CXP18.6-046] | MIC (Streptococcus pyogenes): 32 µg/mL (≈ 97.4 µM); IC50 [4]: > 10000 nM; IC50 [5]: 401 nM
16 | 0.1 |  |  | CC(C)(CO)[C@@H](O)C(=O)NCCNC(=O)CCc1cccs1 [CXP18.6-047] | MIC (Streptococcus pyogenes): 8 µg/mL (≈ 24.4 µM); IC50 [4]: > 10000 nM; IC50 [5]: 168 nM
17 | 0.11 |  | 4 (≈ 11.2 µM) | CC(C)(CO)[C@@H](O)C(=O)NCCNC(=O)CCc1ccc(F)cc1F [CXP18.6-069] | 
18 | 0.004 | > 32 |  | C[C@@H](CNC(=O)[C@H](O)C(C)(C)CO)NC(=O)CCc1ccccc1F [MMV689258] | 
